# PubChem BioAssay AID720589 (Broad Institute, 2013)
# Tested on: HepG2 viability, ATP luminescence (CellTiter-Glo), 72 h
# Test: ATP-based viability loss in HepG2 cells – cell-based, CellTiter-Glo luminescence, cherry-pick, set 3, cytotoxicity control, dose response (AID 720589)
row,SMILES,AC35 [µM]
1,COC1C(O)C(C)OC(OC2C(Oc3cccc4c(O)c5c(=O)oc6ccc(C)c7c(=O)oc(c34)c5c67)OC(C)C(O)C2O)C1O (configuration not stated),14.3
2,C[C@@H]1O[C@@H](O[C@H]2C[C@@H](O)[C@]3(CO)[C@H]4[C@H](O)C[C@]5(C)[C@@H](C6COC(=O)C6)CC[C@]5(O)[C@@H]4CC[C@]3(O)C2)[C@H](O)[C@H](O)[C@H]1O (some centres not stated),2.62
3,O=C(Nc1ccc(Br)cc1)c1ccc(F)c(S(=O)(=O)N2CCN(c3ccccn3)CC2)c1,2.69
4,C/C(=N\NC(=O)c1n[nH]c2c1CCC2)c1cccs1,15.6
5,CCCCC[C@H](C)N1C[C@H](COCc2ccccc2)Oc2cc(N3CC[C@@H](N(C)C)C3)ccc2S1(=O)=O,6.56
6,COc1ccc2cc(C(N)=O)/c(=N\NC(=O)c3ccccc3)oc2c1,17.2
7,Cc1ccc(/C=C2\SC(=S)N(CCCC(=O)NNC(=O)c3ccccc3O)C2=O)cc1,16.9
8,C[C@@H]1O[C@@H](O[C@H]2C[C@@H](O)[C@]3(CO)[C@@H]4C(CC[C@]3(O)C2)[C@@]2(O)CC[C@H](C3COC(=O)C3)[C@@]2(C)C[C@H]4O)[C@H](O)[C@H](O)[C@H]1O (some centres not stated),1.47
9,COc1cc(/C=N/NC(=O)c2csc3c2CCCC3)cc(OC)c1O,20
10,C[C@@H]1CN([C@@H](C)CO)C(=O)c2cc(NC(=O)Nc3ccccc3)ccc2O[C@@H]1CN(C)Cc1ccc(C(=O)Nc2ccccc2N)cc1,2.69
11,C[C@H]1CN([C@@H](C)CO)S(=O)(=O)c2ccc(C#Cc3ccncc3)cc2O[C@@H]1CN(C)C(=O)Nc1ccc2c(c1)OCO2,0.902
12,C(=N\Nc1nc2ccccc2s1)/c1ccccn1,4.83
13,C[C@H](CO)N1C[C@H](C)[C@H](CN(C)Cc2ccc(C(=O)Nc3ccccc3N)cc2)Oc2ccc(NC(=O)C3CC3)cc2CC1=O,0.74
14,COc1cc(C(=O)N2CCC(N3CCN(C)CC3)CC2)ccc1Nc1ncc2c(n1)N(C)c1ccccc1C(=O)N2C,11.4
15,O=c1c2ccccc2nc(/C=C/c2cc(Br)ccc2O)n1CCCO,6.52
16,O=C1NC(=O)N(Cc2ccc(F)cc2)C(=O)/C1=C\C=C\c1ccco1,9.05

row,SMILES,AC35 [µM]
1,Cc1ccc(/C=N/Nc2ccnc3cc(Cl)ccc23)c(C)c1,5.3
2,O=C(Nc1ccccc1F)N1CCCCN2[C@H](CO)[C@H](c3ccc(/C=C/c4ccccc4)cc3)[C@H]2C1,4.41
3,CCN1/C(=C/C=C/c2oc3ccc(-c4ccccc4)cc3[n+]2CC)Oc2ccc(-c3ccccc3)cc21,2.37
4,COC1C(O)C(C)OC(OC2CCC3(C)C(CCC4C3C(O)CC3(C)C(C5=CC(=O)OC5)CCC43O)C2)C1O (configuration not stated),0.204
5,Cc1ccc(S(=O)(=O)Nc2ccc3c(c2)C(=O)N([C@@H](C)CO)C[C@H](C)[C@@H](CN(C)Cc2ccc(C(F)(F)F)cc2)OCCCC[C@@H](C)O3)cc1,13.2
6,CC(=O)OC1CC(OC2C(O)CC(OC3C(O)CC(OC4CCC5(C)C(CCC6C5CC(O)C5(C)C(C7=CC(=O)OC7)CCC65O)C4)OC3C)OC2C)OC(C)C1OC1OC(CO)C(O)C(O)C1O (configuration not stated),0.285
7,Cc1ccc(S(=O)(=O)Nc2ccc3c(c2)C(=O)N([C@H](C)CO)C[C@@H](C)[C@@H](CN(C)Cc2ccc(C(=O)Nc4ccccc4N)cc2)O3)cc1,1.28
8,CCCCCCCCCCCCCCCCn1cc[n+](C)c1,4.54
9,O=C(NC(c1ccc(F)cc1)c1ccc2ccccc2n1)C1CCN(Cc2cccc(C(F)(F)F)c2)CC1 (configuration not stated),20
10,C=C1C(=O)OC2C1CCC(C)C1C=CC(=O)C12C (configuration not stated),9.29
11,Cc1cc2sc3ccc(C#CC4(O)CCCCC4)cc3c(=O)c2cc1C,21.6
12,C(=Cc1nc2ccccc2o1)c1ccc2c(c1)OCO2,19.5
13,CC(C)c1oc(=O)cc2c1[C@@H](O)[C@H]1OC(=O)[C@@]3(C)CC[C@@H](O)[C@@]2(C)C13 (some centres not stated),19.7
14,COc1ccccc1C(CCNCc1ccc(N(C)C)cc1)c1ccc(OC(C)C)cc1 (configuration not stated),4.74
15,NC(Cc1ccc(C(F)(F)F)cc1)c1csc(NC(=O)Nc2ccccc2Cc2ccccc2)n1 (configuration not stated),12.4
16,C[C@@H]1CN([C@@H](C)CO)C(=O)Cc2cc(N(C)C)ccc2O[C@H]1CN(C)Cc1ccc(C(=O)Nc2ccccc2N)cc1,2.38
